Reference: patent US20240299294A1, “TARGETED DELIVERY OF EFFECTIVE THERAPEUTIC MEDICATIONS TO THE RESPIRATORY TRACT” (Amphastar Pharmaceuticals, Inc., priority 2020, published 2024)
Read-outs that look alike come from different tables or passages of the source.

Assays:
[1] = system: SARS-CoV-2 virus; test: microbe, parasite or virus in culture; type: cell-based; conditions: Severe acute respiratory syndrome coronavirus 2, VeroE6/TMPRSS2
[2] = Cell viability (MTT) assay, CC50, Study APS002-1; type: cell-based; conditions: African green monkey, Vero E6-TMPRSS2 cells
Experimental: In the antiviral cell assay, Vero E6-TMPRSS2 cells were seeded into 96 well plates and grown to 80-90% confluency. Compounds were prepared using an 8-point, half-log (˜3-fold) dilution starting at 100 μM. Vehicle (Placebo) and positive control (Remdesivir) wells were included to control for any influence on cell viability. After one hour, compounds were removed and virus was added at a single concentration (100× Median Tissue Culture Infectious Dose (TCID50)), together with equivalent serial dilutions of test compound. Following infection/treatment, cells were incubated for a further hour. After infection, virus/treatment was removed and an overlay medium was added to the cells, together with equivalent serial dilutions of test compound. Cells were visually inspected daily for the appearance of any cytopathic effect (“CPE”). A cell viability (MTT) assay was performed once CPE was complete.

[3] = in vivo; set-up: species or system mice; conditions: mouse
Experimental: The breathing tank 400 is a specially designed stainless steel breathing tank, which is used for mice to breathe in aerosolized formulations of the medications described earlier in the Examples. At the start of each treatment session, a specific number of sprays of a medication formulation were sprayed into the pre-cleaned tank. To ensure consistent concentration of test article, a stirring fan installed inside the tank was started at a speed of 400 rpm before the first spray of the test articles (such as, the medications). Thirty seconds after the last spray, eight mice were mounted to the inhalation chamber to breathe in aerosolized formulations of the medications from the breathing tank for a specified duration. Animals were then taken off the breathing tank (defined as the “0” time point post dosing).
The purpose of the study is to evaluate the lung delivery characteristics of single dose HCQ inhalation in a mouse model. […] Thirty seconds after the last spray (t=0 minute), eight mice were mounted to the inhalation chamber to breathe the medication aerosol from the breathing tank for 10 minutes.
Mice were euthanized and mice lung samples were collected and homogenated at eight time points of 10′, 30′, 45′, 1 h, 2 h, 3 h, 4 h and 6 h after treatment. Four mice were used at each time point and in total 32 mice were studied.

[4] = in vivo; conditions: mouse
Experimental: For the single-dose study, 48 mice were treated with the highest dose level (16 sprays) of Formulation 11. Twelve time points were measured: baseline (within one hour before dosing), 5 min, 15 min, 30 min, 1 h, 2 h, 3 h, 4 h, 6 h, 9 h, 24 h and 48 h post dosing. Each animal was sampled twice at two different time points and four mice per gender were used at each time point.

[5] = system: mice; test: 5-day repeated-dose local and systemic toxicity study of HCQ inhalation (Example 12); type: in vivo
Experimental: A total of 200 mice were used, in which 40 mice (male:female=1:1) were assigned to each study arm.
Mice were dosed four sessions a day for 5 days, with 3 hours interval between two consecutive treatment sessions. Each session was a 6-minute nose-only inhalation treatment after spraying the designated articles (4, 8 or 16 sprays) into the 21.5 L breathing tank.
After the treatment, 24 mice (male:female=1:1) were sacrificed on Day 6 (or Day-1 post completion of treatment, PCT Day-1) for acute toxicity evaluation and 16 mice (male:female=1:1) were sacrificed on Day 19 (PCT Day-14) for recovery evaluation.
Standard local toxicity evaluation items included: (1) general safety including in-life daily observation and body weight measurement; (2) gross macroscopic observation and organ weight measurement; (3) clinical pathology including hematology and blood chemistry tests; and (4) microscopic histopathological examination.

[6] = in vivo
[7] = in vivo; conditions: mouse; remark: listed apart in the source
[8] = cited from earlier work
[9] = Dose range and dose response study of HCQ for lung delivery (Example 9); conditions: mouse, in vivo, 16 sprays
[10] = Estimation of HCQ concentration in alveolar lining fluid (ALF) (Example 11); conditions: mouse, in vivo, 10 sprays

## CCC(CC)COC(=O)[C@H](C)N[P@](=O)(OC[C@H]1O[C@@](C#N)(c2ccc3c(N)ncnn23)[C@H](O)[C@@H]1O)Oc1ccccc1 [Remdesivir]
[1]
  EC50: 2.35 µM
[2]
  CC50: > 20 µM

## CCN(CCO)CCCC(C)Nc1ccnc2cc(Cl)ccc12 (stereo not drawn) [HCQ, Hydroxychloroquine]
[3]
  appearance of mice after the treatment: appeared healthy and normal
[3]; inhaled or intranasal
  half-life: 4.6 h
[4]; both
  half-life: ≥ 4 h
[4]; both, in vivo, 16 sprays
  Kp: ≥ 25
[4]; female, in vivo, 16 sprays
  Kp at 0.083 h: 66.3
  Kp at 0.25 h: 50.6
  Kp at 0.5 h: 38
  Kp at 1 h: 100
  Kp at 3 h: 193
  Kp at 24 h: 26.9
  concentration at 0.083 h: 133 ng/mL
  concentration at 0.25 h: 89.2 ng/mL
  concentration at 0.5 h: 93.6 ng/mL
  concentration at 1 h: 40.2 ng/mL
  concentration at 3 h: 16.8 ng/mL
  concentration at 24 h: 12.6 ng/mL
[4]; male, in vivo, 16 sprays
  Kp at 0.083 h: 58.4
  Kp at 0.25 h: 51.5
  Kp at 0.5 h: 85.2
  Kp at 1 h: 90.9
  Kp at 3 h: 250
  Kp at 24 h: 56.5
  concentration at 0.083 h: 163 ng/mL
  concentration at 0.25 h: 92 ng/mL
  concentration at 0.5 h: 55 ng/mL
  concentration at 1 h: 40.2 ng/mL
  concentration at 3 h: 13.2 ng/mL
  concentration at 24 h: 4.9 ng/mL
[5]; Formulation 11, PCT-Day 1
  local toxicity, nasal turbinates and larynx: low incidence of minor changes
[5]; mouse, in vivo
  histopathological finding in the thymus: minimal to mild tingible body macrophages
  local toxicity, histopathological examination of six organs: No dose related abnormalities
[1]; Vero E6-TMPRSS2 cells, virus 100× TCID50, read-out: EC50
  EC50: 11.3 µM
[2]
  CC50: > 100 µM
[6]
  time the delivered medication can be detected in the mouse lungs: no less than 24 h
[7]; both
  half-life: 6 to 8 h
[7]
  half-life: 4.6 to 7.8 h
[8]; HCQ oral tablet delivery
  half-life: 123.5 days
[8]; in vivo, po
  share of oral tablet dose distributed to the plasma and ultimately reaching the lungs and alveoli: about 0.07%
[9]; female
  concentration at 0.083 h: 8820 ng/g
  concentration at 0.25 h: 4510 ng/g
  concentration at 0.5 h: 3560 ng/g
  concentration at 1 h: 4040 ng/g
  concentration at 3 h: 3250 ng/g
  concentration at 24 h: 339 ng/g
[9]; male
  concentration at 0.083 h: 9510 ng/g
  concentration at 0.25 h: 4740 ng/g
  concentration at 0.5 h: 4680 ng/g
  concentration at 1 h: 3660 ng/g
  concentration at 3 h: 3300 ng/g
  concentration at 24 h: 277 ng/g
[10]
  concentration at 10 min: 476 µM
  concentration at 6 h: 188 µM
